Experimental data reported in ChEMBL document CHEMBL1201862, “PubChem BioAssay data set” (2004).
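Five compound concentrations were applied to cells in 96-well plates for 48 hours; endpoints were derived by simple linear interpolation of the resulting dose-response curve. GI50: concentration for 50% inhibition of growth.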 Active and inactive are the calls of the source. Cut-off read from the data, not from the text of the source: active = GI50 up to about 1.1 µM and inactive = higher.

Experiments:
Assay in all cases: inhibition of tumour cell growth, NCI panel, 48 h
786-0 = test system: 786-0
CCRF-CEM = test system: CCRF-CEM
HOP-62 = test system: HOP-62
HOP-92 = test system: HOP-92
IGROV-1 = test system: IGROV-1
K562 = test system: K562
KM12 = test system: KM12
M14 = test system: M14
Malme-3M = test system: Malme-3M
NCI-H226 = test system: NCI-H226
NCI-H460 = test system: NCI-H460
RXF 393 = test system: RXF 393
SK-MEL-5 = test system: SK-MEL-5
SK-OV-3 = test system: SK-OV-3
SN12C = test system: SN12C
SNB-19 = test system: SNB-19
SNB-75 = test system: SNB-75
U-251 = test system: U-251
BT-549 = test system: BT-549
NCI/ADR-RES = test system: NCI/ADR-RES

Measured: GI50

Cn1cc2ccccc2c1-c1nc(F)nc(OCC(=O)[C@H]2CCC3[C@@H]4CCC5=CC(=O)CC[C@]5(C)C4[C@@H](O)C[C@@]32C)n1 (stereo partly drawn)
inactive: 786-0 16.5 µM | CCRF-CEM 4.31 µM | HOP-62 22 µM | HOP-92 19.8 µM | IGROV-1 7.48 µM | K562 2.91 µM | KM12 16.6 µM | M14 20.3 µM | Malme-3M 18.9 µM | NCI-H226 19.2 µM | NCI-H460 21.7 µM | RXF 393 3.92 µM | SK-MEL-5 20.3 µM | SK-OV-3 19.1 µM | SN12C 15.7 µM | SNB-19 19.4 µM | SNB-75 19 µM | U-251 19.4 µM

CCSCCCSCCSCC
inactive: 786-0 > 100 µM | BT-549 > 100 µM | CCRF-CEM > 100 µM | HOP-62 > 100 µM | IGROV-1 > 100 µM | K562 > 100 µM | KM12 > 100 µM | M14 > 100 µM | NCI-H460 > 100 µM | SK-MEL-5 > 100 µM | SK-OV-3 > 100 µM | SN12C > 100 µM | SNB-19 > 100 µM | SNB-75 > 100 µM | U-251 > 100 µM

CC(=O)Oc1ccc(-c2c(OC(C)=O)c(OC(C)=O)c(-c3ccc(OC(C)=O)c(OC(C)=O)c3)c(OC(C)=O)c2OC(C)=O)cc1
inactive: 786-0 16.1 µM | CCRF-CEM 10.7 µM | IGROV-1 15.5 µM | K562 21.5 µM | KM12 14.4 µM | M14 18.1 µM | Malme-3M 16.1 µM | NCI-H226 17.9 µM | NCI-H460 40.1 µM | NCI/ADR-RES 39.7 µM | RXF 393 18.2 µM | SK-MEL-5 11.7 µM | SK-OV-3 22.3 µM | SN12C 18.8 µM | SNB-19 15.8 µM | SNB-75 13.6 µM | U-251 17.5 µM

CN(C)CCS/C(=N\c1ccccc1)N1C=COC=C1
inactive: 786-0 20.1 µM | BT-549 > 100 µM | CCRF-CEM > 74.6 µM | HOP-62 > 100 µM | HOP-92 26.2 µM | IGROV-1 18 µM | K562 > 67.8 µM | KM12 57.4 µM | M14 18 µM | Malme-3M 33.7 µM | NCI-H226 > 46.2 µM | NCI-H460 > 68.5 µM | RXF 393 26.7 µM | SK-MEL-5 19.5 µM | SK-OV-3 > 100 µM | SN12C 27.5 µM | SNB-19 > 100 µM | SNB-75 > 78.7 µM | U-251 48 µM

N[C@H](CCC(=O)NCP(=O)(O)O)C(=O)O
inactive: 786-0 > 100 µM | BT-549 > 100 µM | HOP-62 > 100 µM | IGROV-1 > 100 µM | K562 > 100 µM | KM12 > 100 µM | Malme-3M > 100 µM | NCI-H460 > 100 µM | NCI/ADR-RES > 100 µM | SK-MEL-5 > 100 µM | SN12C > 100 µM | SNB-19 > 100 µM | U-251 > 100 µM

Cc1ccc2c(c1)CC1(Cc3ccccc3C1=O)C2=O (stereo not drawn)
inactive: 786-0 > 100 µM | CCRF-CEM > 100 µM | HOP-62 44.4 µM | HOP-92 64.3 µM | IGROV-1 > 100 µM | K562 > 100 µM | KM12 > 100 µM | M14 > 100 µM | Malme-3M > 100 µM | NCI-H226 > 100 µM | NCI-H460 > 100 µM | NCI/ADR-RES > 100 µM | RXF 393 > 100 µM | SK-MEL-5 > 100 µM | SK-OV-3 > 100 µM | SN12C > 100 µM | SNB-19 > 100 µM | SNB-75 > 100 µM | U-251 > 100 µM

COc1ccc2[nH]c3c4c(cc(-c5ccccc5)c3c2c1)C(=O)N(c1ccccc1)C4=O
inactive: 786-0 4.9 µM | CCRF-CEM 4.97 µM | HOP-62 14.2 µM | HOP-92 17.6 µM | IGROV-1 41.5 µM | K562 22.1 µM | KM12 33.3 µM | M14 19.3 µM | Malme-3M 20.4 µM | NCI-H226 25.1 µM | NCI-H460 9.73 µM | RXF 393 13 µM | SK-MEL-5 12.3 µM | SK-OV-3 26.3 µM | SN12C 21.5 µM | SNB-19 23.6 µM | SNB-75 6.3 µM | U-251 5.98 µM

COc1cc2c(c(OC)c1)C(=O)C(=O)C(CC1(C)OCCCO1)=C2
inactive: 786-0 9.1 µM | CCRF-CEM 1.91 µM | HOP-62 17.5 µM | HOP-92 1.89 µM | IGROV-1 14.2 µM | K562 2.29 µM | KM12 16 µM | M14 12 µM | Malme-3M 8.2 µM | NCI-H226 6.17 µM | NCI-H460 13.3 µM | RXF 393 4.38 µM | SK-MEL-5 6.05 µM | SK-OV-3 16.6 µM | SN12C 13.2 µM | SNB-19 22.2 µM | SNB-75 19.5 µM | U-251 15.3 µM

O=[N+]([O-])/C(C(Cl)=C(Cl)Cl)=C1/OCCS1
inactive: 786-0 23 µM | CCRF-CEM 15.9 µM | HOP-62 20.8 µM | IGROV-1 24.4 µM | K562 30 µM | KM12 31.9 µM | M14 46.7 µM | Malme-3M 17.7 µM | NCI-H226 30.2 µM | NCI-H460 27 µM | NCI/ADR-RES 17.1 µM | RXF 393 19.3 µM | SK-MEL-5 19.1 µM | SK-OV-3 48.6 µM | SN12C 23 µM | SNB-19 50.4 µM | SNB-75 13.9 µM | U-251 36 µM

CC[n+]1[b-](C(C)(C)C)n(/N=C/C(C)(C)C)[b-](C(C)(C)C)[n+]1CC
inactive: 786-0 > 100 µM | BT-549 > 100 µM | CCRF-CEM 66.1 µM | HOP-62 > 100 µM | IGROV-1 > 100 µM | K562 67.1 µM | KM12 > 100 µM | M14 > 100 µM | Malme-3M > 100 µM | NCI-H226 > 100 µM | NCI-H460 > 100 µM | NCI/ADR-RES > 100 µM | RXF 393 > 100 µM | SK-MEL-5 > 100 µM | SN12C > 100 µM | SNB-19 > 100 µM | SNB-75 > 100 µM | U-251 > 100 µM

CC(=O)Oc1ccc2cc(Oc3cc(Cl)c(Cl)cc3Cl)c(=O)oc2c1
inactive: 786-0 15.6 µM | BT-549 13.1 µM | CCRF-CEM 14 µM | HOP-62 17.3 µM | HOP-92 17.8 µM | IGROV-1 11.2 µM | K562 13.2 µM | KM12 13 µM | M14 18.2 µM | Malme-3M 15.3 µM | NCI-H226 16.9 µM | NCI-H460 18.8 µM | RXF 393 14.6 µM | SK-MEL-5 11.9 µM | SN12C 14.6 µM | SNB-19 29.6 µM | SNB-75 19.6 µM | U-251 15.6 µM

O=C1/C(=C/c2cccc3ccccc23)Cc2ccccc21
inactive: 786-0 20.4 µM | BT-549 13.2 µM | CCRF-CEM 59.2 µM | IGROV-1 41.4 µM | K562 62.4 µM | KM12 35.9 µM | M14 59.2 µM | NCI-H226 10.5 µM | NCI-H460 36.6 µM | NCI/ADR-RES 52.2 µM | RXF 393 16.7 µM | SK-MEL-5 29.9 µM | SK-OV-3 18.6 µM | SN12C 49.5 µM | SNB-19 17.9 µM | SNB-75 29.8 µM | U-251 19.6 µM

Cc1cc([N+](=O)[O-])ccc1Sc1c2ccccc2nc2ccccc12
inactive: 786-0 23.6 µM | CCRF-CEM 21.8 µM | HOP-62 > 100 µM | HOP-92 48.3 µM | IGROV-1 28.4 µM | K562 32.1 µM | KM12 18.5 µM | M14 32.6 µM | Malme-3M > 100 µM | NCI-H226 > 100 µM | NCI-H460 32 µM | RXF 393 57.5 µM | SK-MEL-5 43.1 µM | SK-OV-3 31.3 µM | SN12C 39.6 µM | SNB-19 45.5 µM | SNB-75 39.6 µM | U-251 28.5 µM

OC(C/C=N/Nc1ccccc1)(C(F)(F)Cl)C(F)(F)Cl
inactive: 786-0 > 10 µM | CCRF-CEM > 10 µM | HOP-62 > 10 µM | HOP-92 7.35 µM | IGROV-1 6.76 µM | K562 9.46 µM | KM12 > 10 µM | M14 > 10 µM | Malme-3M > 10 µM | NCI-H226 7.38 µM | NCI-H460 5.53 µM | NCI/ADR-RES > 10 µM | RXF 393 6.75 µM | SK-MEL-5 > 10 µM | SK-OV-3 > 10 µM | SN12C > 10 µM | SNB-19 > 10 µM | SNB-75 9.91 µM | U-251 > 10 µM

CC[N+](C)(CC)CC(C)(C)C(=O)/C=C/c1ccc(/C=C/C(=O)C(C)(C)C[N+](C)(CC)CC)cc1
inactive: 786-0 > 100 µM | CCRF-CEM > 100 µM | HOP-62 > 100 µM | HOP-92 > 100 µM | IGROV-1 > 100 µM | K562 > 100 µM | KM12 > 100 µM | M14 > 100 µM | Malme-3M > 100 µM | NCI-H226 > 100 µM | NCI-H460 > 100 µM | RXF 393 > 100 µM | SK-MEL-5 > 100 µM | SK-OV-3 > 100 µM | SN12C > 100 µM | SNB-19 > 100 µM | SNB-75 > 100 µM | U-251 > 100 µM
